Reference: ChEMBL document CHEMBL1201862, “PubChem BioAssay data set” (2004)
The source made the active and inactive calls.

Assays:
[1] = NIH-3T3 fibroblast cytotoxicity, dose response, cytotoxicity control, cell-based, fluorescence, Alamar Blue, secondary assay (AID 2327); type: functional;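 note: NIH-3T3 mouse fibroblasts cultured with fluconazole at 8 µg/mL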
Albumin = Albumin (Bos taurus, UniProt P02769); assay: Counterscreen for inhibitors of T-cell receptor (TCR)-CD3 interaction: Fluorescence-based biochemical high throughput dose response assay to identify inhibitors of T-cell receptor (TCR)-CD3 interaction using a TAMRA-labeled BSA probe.; type: functional
Sequence of Albumin (P02769 whole entry): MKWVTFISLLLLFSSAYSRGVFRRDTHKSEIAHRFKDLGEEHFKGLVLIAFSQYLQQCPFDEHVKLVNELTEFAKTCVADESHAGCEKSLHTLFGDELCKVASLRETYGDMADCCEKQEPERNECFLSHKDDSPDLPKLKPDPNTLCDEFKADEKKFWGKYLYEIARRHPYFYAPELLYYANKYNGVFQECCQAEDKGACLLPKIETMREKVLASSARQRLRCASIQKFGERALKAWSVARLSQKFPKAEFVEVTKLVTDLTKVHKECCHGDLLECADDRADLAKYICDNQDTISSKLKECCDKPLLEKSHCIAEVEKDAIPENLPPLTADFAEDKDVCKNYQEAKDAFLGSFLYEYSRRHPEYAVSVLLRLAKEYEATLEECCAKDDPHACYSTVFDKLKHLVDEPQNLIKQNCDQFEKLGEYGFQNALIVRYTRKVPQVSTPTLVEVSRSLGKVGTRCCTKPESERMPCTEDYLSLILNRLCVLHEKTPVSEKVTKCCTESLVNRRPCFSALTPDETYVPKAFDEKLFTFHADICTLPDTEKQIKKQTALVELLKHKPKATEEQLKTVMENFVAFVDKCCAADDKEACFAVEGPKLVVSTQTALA

[2] = target: Probable nicotinate-nucleotide adenylyltransferase (Staphylococcus aureus (strain N315), UniProt P65502); type: functional, Staphylococcus aureus subsp. aureus N315; conditions: read-out: IC50_Mean;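 note: confirmatory dose-response retesting of NadD inhibitor hits first found in an ultra-high-throughput screen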
Sequence of Probable nicotinate-nucleotide adenylyltransferase (P65502 whole entry): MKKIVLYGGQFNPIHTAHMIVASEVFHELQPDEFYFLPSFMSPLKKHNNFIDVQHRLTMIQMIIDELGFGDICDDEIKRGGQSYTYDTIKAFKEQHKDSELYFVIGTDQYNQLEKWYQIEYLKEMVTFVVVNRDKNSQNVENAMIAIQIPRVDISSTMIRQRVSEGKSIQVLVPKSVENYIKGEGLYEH

Estrogen receptor beta = Estrogen receptor beta (Homo sapiens, UniProt Q92731);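 note: recombinant ER-beta bound to coactivator SRC1 peptide in presence of estradiol agonist; inhibitors block coactivator peptide binding and lower the FRET signal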
Sequence of Estrogen receptor beta (Q92731 whole entry): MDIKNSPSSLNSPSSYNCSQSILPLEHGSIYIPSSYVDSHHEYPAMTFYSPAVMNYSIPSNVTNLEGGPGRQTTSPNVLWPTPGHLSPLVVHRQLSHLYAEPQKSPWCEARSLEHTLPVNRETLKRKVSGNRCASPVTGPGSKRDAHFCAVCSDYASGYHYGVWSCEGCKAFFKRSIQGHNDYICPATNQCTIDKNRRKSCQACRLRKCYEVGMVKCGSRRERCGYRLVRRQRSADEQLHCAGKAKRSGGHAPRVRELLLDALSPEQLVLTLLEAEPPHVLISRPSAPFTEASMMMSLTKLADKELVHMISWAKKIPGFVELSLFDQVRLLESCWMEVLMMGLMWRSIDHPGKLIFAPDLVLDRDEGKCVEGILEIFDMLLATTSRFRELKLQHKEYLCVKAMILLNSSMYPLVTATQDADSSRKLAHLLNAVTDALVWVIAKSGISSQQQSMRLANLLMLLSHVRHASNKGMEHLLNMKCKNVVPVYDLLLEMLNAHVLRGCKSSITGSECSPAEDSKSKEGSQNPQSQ

[3] = inhibitors of SNCA 5'UTR-driven reporter translation, confirmation, H4 neuroglioma cells, luminescence (AID 1988); type: functional, cell-based
[4] = target: Voltage-gated N-type calcium channel alpha-1B subunit/Amyloid beta A4 precursor protein-binding family A member 1 (Homo sapiens, UniProt Q00975+Q02410); type: protein assay
Sequence of Voltage-gated N-type calcium channel alpha-1B subunit/Amyloid beta A4 precursor protein-binding family A member 1 (Q00975 whole entry): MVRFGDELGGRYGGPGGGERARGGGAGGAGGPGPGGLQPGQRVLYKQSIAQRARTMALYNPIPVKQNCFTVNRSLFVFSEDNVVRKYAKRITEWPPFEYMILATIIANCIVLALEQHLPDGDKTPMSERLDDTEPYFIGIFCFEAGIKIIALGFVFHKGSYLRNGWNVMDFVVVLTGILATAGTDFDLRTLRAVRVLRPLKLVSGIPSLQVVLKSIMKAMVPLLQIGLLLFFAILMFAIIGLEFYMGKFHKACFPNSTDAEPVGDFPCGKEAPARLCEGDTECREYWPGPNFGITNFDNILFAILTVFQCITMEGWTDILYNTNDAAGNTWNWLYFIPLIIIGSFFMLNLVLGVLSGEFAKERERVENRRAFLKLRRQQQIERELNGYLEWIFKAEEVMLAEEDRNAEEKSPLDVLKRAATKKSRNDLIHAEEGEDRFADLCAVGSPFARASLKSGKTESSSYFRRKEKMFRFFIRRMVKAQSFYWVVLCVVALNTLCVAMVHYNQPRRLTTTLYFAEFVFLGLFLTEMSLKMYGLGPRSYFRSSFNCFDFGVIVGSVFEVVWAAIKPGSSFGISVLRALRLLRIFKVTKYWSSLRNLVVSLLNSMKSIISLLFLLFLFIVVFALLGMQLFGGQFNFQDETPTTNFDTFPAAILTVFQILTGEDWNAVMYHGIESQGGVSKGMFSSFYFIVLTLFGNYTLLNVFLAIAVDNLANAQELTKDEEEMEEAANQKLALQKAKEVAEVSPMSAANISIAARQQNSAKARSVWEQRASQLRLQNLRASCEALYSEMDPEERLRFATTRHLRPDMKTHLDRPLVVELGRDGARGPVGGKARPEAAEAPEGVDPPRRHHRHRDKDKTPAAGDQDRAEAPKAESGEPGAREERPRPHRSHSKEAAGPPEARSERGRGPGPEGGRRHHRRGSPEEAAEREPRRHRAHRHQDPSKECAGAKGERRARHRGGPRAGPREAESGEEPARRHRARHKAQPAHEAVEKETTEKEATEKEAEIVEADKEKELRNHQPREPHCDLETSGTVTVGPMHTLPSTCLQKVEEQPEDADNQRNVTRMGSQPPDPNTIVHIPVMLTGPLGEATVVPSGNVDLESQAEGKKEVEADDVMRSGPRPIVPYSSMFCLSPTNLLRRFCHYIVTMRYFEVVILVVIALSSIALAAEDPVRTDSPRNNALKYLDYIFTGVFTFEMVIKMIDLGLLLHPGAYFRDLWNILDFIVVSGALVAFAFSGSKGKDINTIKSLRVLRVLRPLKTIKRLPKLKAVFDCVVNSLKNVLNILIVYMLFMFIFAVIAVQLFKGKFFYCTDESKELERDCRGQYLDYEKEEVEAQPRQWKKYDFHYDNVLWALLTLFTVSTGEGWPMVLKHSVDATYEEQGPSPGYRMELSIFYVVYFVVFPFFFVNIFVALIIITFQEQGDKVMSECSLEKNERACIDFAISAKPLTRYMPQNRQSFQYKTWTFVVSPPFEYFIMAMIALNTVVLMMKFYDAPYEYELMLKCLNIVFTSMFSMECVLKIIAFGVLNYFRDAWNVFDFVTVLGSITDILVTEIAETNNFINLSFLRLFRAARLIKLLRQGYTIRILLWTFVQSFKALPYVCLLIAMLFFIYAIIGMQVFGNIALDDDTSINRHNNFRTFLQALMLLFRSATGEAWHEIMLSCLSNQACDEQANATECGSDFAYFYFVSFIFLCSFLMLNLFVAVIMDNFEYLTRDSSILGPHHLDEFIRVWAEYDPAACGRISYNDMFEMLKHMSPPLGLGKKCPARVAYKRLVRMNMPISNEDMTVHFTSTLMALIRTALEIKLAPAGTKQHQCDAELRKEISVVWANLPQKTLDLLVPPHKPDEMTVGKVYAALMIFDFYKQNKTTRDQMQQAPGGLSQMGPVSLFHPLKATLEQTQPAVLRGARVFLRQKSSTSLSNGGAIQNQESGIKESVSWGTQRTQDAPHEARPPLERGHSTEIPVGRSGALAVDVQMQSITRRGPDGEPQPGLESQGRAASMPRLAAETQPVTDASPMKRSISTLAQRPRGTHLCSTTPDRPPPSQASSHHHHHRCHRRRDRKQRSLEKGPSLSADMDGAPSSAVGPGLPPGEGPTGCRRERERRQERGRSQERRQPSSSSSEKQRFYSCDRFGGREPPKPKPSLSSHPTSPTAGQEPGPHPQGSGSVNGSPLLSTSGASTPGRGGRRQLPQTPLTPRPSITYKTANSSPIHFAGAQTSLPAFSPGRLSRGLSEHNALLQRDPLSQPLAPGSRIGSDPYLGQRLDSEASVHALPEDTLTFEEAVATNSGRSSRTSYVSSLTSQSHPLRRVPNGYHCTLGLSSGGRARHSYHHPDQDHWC
Sequence of Voltage-gated N-type calcium channel alpha-1B subunit/Amyloid beta A4 precursor protein-binding family A member 1 (Q02410 whole entry): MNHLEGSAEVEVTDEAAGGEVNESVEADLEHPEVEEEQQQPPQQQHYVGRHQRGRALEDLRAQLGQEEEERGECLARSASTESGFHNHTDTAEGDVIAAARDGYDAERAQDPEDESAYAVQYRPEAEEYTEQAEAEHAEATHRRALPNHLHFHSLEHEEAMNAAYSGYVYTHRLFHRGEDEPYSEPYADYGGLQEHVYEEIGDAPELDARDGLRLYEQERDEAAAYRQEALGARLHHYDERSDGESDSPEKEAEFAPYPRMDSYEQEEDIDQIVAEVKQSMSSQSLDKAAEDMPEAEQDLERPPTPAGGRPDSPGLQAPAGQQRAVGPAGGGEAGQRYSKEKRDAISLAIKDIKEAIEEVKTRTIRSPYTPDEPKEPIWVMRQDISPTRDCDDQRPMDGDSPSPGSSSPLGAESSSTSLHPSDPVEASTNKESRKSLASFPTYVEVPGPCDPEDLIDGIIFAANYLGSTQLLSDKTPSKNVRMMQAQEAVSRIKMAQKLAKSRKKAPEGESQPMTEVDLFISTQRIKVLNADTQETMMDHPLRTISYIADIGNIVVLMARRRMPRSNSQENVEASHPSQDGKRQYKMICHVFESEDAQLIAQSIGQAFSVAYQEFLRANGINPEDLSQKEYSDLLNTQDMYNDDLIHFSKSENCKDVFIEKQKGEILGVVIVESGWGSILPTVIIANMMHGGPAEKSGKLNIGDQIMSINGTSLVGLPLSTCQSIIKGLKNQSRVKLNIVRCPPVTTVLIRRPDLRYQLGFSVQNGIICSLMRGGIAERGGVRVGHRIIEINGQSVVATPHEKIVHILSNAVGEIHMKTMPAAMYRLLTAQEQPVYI

Troponin, cardiac muscle = Troponin, cardiac muscle (Homo sapiens, UniProt P19429+P45379+P63316); assay: inhibitors of cardiac thin filament calcium sensitivity, dose response, biochemical, fluorescence, cardiac regulated thin filaments, triplicate IC50 (AID 504742); type: protein-complex assay
[5] = target: T1, Tyrosine-protein phosphatase non-receptor type 22 (Homo sapiens, UniProt Q9Y2R2); assay: SAR LYP1 Fluorescent Assay using pCAP substrate for In Vitro dose response studies - Set 4. [Related pubchem assays (depositor defined):AID1779, AID1784]; type: functional
T1 sequence (Q9Y2R2 whole entry): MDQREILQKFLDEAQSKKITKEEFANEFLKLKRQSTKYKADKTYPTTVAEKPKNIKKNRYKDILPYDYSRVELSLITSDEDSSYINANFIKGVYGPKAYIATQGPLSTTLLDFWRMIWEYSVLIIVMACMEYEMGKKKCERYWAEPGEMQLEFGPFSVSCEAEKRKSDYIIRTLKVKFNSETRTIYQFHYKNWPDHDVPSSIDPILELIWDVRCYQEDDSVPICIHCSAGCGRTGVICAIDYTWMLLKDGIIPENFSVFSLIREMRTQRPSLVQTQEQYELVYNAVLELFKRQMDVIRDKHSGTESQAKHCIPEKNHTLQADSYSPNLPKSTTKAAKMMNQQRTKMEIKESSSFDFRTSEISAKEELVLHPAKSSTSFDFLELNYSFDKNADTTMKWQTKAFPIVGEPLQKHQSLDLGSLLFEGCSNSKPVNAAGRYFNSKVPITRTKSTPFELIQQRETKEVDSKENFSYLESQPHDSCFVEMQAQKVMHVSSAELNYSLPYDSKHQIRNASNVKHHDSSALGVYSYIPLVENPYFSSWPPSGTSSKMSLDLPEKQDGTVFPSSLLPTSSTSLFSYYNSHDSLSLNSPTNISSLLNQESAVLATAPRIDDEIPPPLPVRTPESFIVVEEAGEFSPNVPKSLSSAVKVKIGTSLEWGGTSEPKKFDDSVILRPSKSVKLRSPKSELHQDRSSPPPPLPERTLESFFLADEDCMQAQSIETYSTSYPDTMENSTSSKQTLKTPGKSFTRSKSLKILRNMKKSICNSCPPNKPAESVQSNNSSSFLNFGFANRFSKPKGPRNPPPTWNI

[6] = target: Dual specificity protein phosphatase 3 (Homo sapiens, UniProt P51452); assay: VHR1 phosphatase inhibitors, primary screen, biochemical, absorbance, uHTS (AID 1654)
Sequence of Dual specificity protein phosphatase 3 (P51452 whole entry): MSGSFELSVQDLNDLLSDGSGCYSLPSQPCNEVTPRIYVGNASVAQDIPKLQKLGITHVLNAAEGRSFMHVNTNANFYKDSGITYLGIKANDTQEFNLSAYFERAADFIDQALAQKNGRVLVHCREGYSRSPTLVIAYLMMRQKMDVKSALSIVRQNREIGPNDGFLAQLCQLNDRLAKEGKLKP

[7] = target: T2, DNA repair and recombination protein RAD54-like (Homo sapiens, UniProt Q92698); assay: inhibitors of human RAD54 branch migration, confirmation, biochemical, fluorescence, cherry-picked samples, dose series (AID 651657); type: functional
T2 sequence (Q92698 whole entry): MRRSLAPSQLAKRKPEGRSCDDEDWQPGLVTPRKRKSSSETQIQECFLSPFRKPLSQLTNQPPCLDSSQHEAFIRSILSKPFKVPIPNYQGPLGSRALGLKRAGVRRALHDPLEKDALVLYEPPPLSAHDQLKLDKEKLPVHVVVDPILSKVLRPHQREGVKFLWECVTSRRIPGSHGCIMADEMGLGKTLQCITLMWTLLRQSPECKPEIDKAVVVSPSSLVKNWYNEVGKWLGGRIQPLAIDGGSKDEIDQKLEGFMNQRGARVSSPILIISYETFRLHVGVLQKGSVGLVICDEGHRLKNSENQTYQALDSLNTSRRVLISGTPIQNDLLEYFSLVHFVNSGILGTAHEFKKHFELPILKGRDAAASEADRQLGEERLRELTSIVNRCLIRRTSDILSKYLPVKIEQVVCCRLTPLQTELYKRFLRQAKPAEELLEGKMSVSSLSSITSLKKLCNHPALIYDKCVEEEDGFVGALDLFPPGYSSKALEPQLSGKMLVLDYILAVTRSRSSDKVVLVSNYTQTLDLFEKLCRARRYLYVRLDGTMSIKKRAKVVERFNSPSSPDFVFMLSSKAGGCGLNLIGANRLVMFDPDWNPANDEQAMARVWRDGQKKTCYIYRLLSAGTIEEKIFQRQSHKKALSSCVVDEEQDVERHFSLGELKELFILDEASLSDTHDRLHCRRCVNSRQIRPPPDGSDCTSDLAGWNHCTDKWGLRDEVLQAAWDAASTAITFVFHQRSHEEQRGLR

[8] = target: T3, Glutathione-S-transferase (Schistosoma japonicum, UniProt Q26513); assay: biotin-GST/anti-GST TR-FRET signal inhibitors, dose response, artefact control for Vif-APOBEC3G degradation inhibitor project, biochemical (AID 1117362); type: functional
T3 sequence (Q26513 whole entry): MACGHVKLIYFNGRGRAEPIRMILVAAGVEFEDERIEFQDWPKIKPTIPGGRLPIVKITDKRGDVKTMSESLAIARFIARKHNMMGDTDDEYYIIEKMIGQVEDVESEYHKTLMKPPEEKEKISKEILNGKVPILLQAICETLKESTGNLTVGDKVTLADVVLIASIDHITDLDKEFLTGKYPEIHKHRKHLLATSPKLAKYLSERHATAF

Cysteine protease ATG4B = target: T4, Cysteine protease ATG4B (Homo sapiens, UniProt Q9Y4P1); type: functional;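 note: Fluorescence-based dose-response confirmation assay measuring inhibition of ATG4B activity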
T4 sequence (Q9Y4P1 whole entry): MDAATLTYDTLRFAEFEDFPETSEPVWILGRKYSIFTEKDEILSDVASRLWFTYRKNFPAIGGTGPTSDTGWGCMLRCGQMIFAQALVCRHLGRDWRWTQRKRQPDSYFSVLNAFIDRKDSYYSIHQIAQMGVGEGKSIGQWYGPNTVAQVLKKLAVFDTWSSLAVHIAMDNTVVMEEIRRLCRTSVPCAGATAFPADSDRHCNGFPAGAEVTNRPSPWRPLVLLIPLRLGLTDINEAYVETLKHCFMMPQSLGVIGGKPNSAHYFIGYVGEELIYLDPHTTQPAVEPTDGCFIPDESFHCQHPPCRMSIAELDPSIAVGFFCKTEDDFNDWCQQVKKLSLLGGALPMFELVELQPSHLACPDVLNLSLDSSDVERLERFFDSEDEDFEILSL

Structure (SMILES): CCN1/C(=C/c2ccc3cc(C)ccc3[n+]2CC)Sc2cc(C)c(C)cc21
- EC50 [1]: 9.66 µM (inconclusive)

Structure (SMILES): Nc1ccc2nc3c(O)nc(S)nc3nc2c1
- IC50 (Albumin): 25.6 µM (inactive)
- IC50 [2]: 17 µM (active)

Structure (SMILES): COc1ccc(C(=O)Nc2nc3c(s2)Cc2cc(OC)ccc2-3)cc1
- IC50 (Estrogen receptor beta): > 50 µM (not active)

Structure (SMILES): Cc1oc2c(c1C(=O)c1ccccc1)C(=O)C(=O)c1ccccc1-2
- EC50 [3]: 8.93 µM (active)

Structure (SMILES): O=C(O)COc1ccc(/C=N/NC(=O)c2ccc(-c3csc(Nc4ccc(Cl)cc4)n3)cc2)cc1
- IC50 [4]: > 50 µM (inactive)
- IC50 (Troponin, cardiac muscle): > 71.5 µM (inactive)
- IC50 [5]: 0.527 µM (active)
- IC50 [6]: 2.52 µM (active)

Structure (SMILES): COc1cc(NCCCNC(C)C)c2nccc(C)c2c1
- AC50 [7]: 49.6 µM (active)
- IC50 [8]: 28.7 µM (active)

Structure (SMILES): CC(/C=C1\SC(=S)N(NS(=O)(=O)c2ccccc2)C1=O)=C\c1ccccc1
- IC50 (Cysteine protease ATG4B): 12 µM (active)
